Reference: PMC4250379 (Neuroscience, 2014)

Target: T1, MD-2 (Homo sapiens, UniProt Q9Y6Y9)
T1 sequence (Q9Y6Y9 19-160): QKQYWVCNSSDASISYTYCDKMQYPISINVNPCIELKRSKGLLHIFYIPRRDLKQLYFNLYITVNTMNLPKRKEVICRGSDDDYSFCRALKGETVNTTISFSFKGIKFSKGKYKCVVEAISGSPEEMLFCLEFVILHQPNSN
Experiment: quenching of MD-2 intrinsic Tyr/Trp fluorescence
Format: binding

With `CN1CC[C@]23c4c5ccc(O[C@@H]6O[C@H](C(=O)O)[C@@H](O)[C@H](O)[C@H]6O)c4O[C@H]2[C@@H](O)C=C[C@H]3[C@H]1C5` [M3G, morphine-3-glucuronide] as the molecule, how does the Kd read?
The Kd was 1500 ± 300 nM.
